Laboratory results reported in US5334728A (The Trustees of The University of Pennsylvania, priority 1992, dated 1994).
Where two headings read alike, the source gives them in different places. Values belong to the compound of their own block, whether it stands above or below them.

Legend:
[1] = target: D-2 dopamine receptor; settings: cited from earlier work; for Kd: Table 1, in vitro binding; for affinity for D-2 dopamine receptor / nonspecific binding: rat striatum tissue preparations; for affinity and selectivity to the D-2 dopamine receptor: striatal membrane preparation
[2] = target: T1, dopamine D-2 receptor (Rattus norvegicus, UniProt P61169); assay: Competition binding using [^125 I]IBF, rat striatal membranes; settings: [^125 I]IBF 0.15-0.30 nM, mean ± SEM of three to five determinations
T1 construct: Striatal tissues were excised, pooled and homogenized in 100 volumes (w/v) of ice-cold Tris-HCl buffer; from tissue; host or cells: rat striatum (male Sprague-Dawley), twice-centrifuged membrane homogenate
Experimental: *0.15-0.30 nM [^125 I]IBF was incubated in the presence of the
(§1) indicated compounds in 7-11 concentrations and of membrane preparation
(§2) from rat striatum. Each value represents the mean ± SEM of three to
(§3) Male Sprague-Dawley rats (200-250 g) were decapitated, and the brains were removed and placed in ice. Striatal tissues were excised, pooled and homogenized in 100 volumes (w/v) of ice-cold Tris-HCl buffer (50 mM), pH 7.4. The homogenates were centrifuged at 20,000× g for 20 min. The resultant pellets were rehomogenized in the same buffer and centrifuged again. The final pellets were resuspended in assay buffer containing: 50 mM Tris buffer pH 7.4, 120 mM NaCl, 5 mM KCl, 2 mM CaCl2 and 1 mM MgCl2 and kept at -20° C. for the following binding assay.
(§4) The binding assays were performed by incubating 50 μl of tissue preparations containing 40-60 μg of protein with appropriate amounts of l-125 labeled ligand and competitors in a total volume of 0.2 ml of the assay buffer. After an incubation period of 15 min at 37° C. (with stirring), the samples were rapidly filtered in the cell harvester (Brandel M-24R) under vacuum through Whatman GF/B glass fiber filters pretreated with 0.2% protamine base and washed with 3×5 ml of cold (4° C.) 50 mM Tris-HCl buffer, pH 7.4. […] The filters were counted in a gamma counter (Beckman 5500) at an efficiency of 70%.

[3] = target: T2, D-2 dopamine receptors (Rattus norvegicus, UniProt P61169); assay: Competition binding using [^125 I]IBZM, rat striatal membranes
T2 construct: Striatal tissues were excised, pooled and homogenized in 100 volumes (w/v) of ice-cold Tris-HCl buffer; from tissue; host or cells: rat striatum (male Sprague-Dawley), twice-centrifuged membrane homogenate
Experimental: *0.15-0.4 nM [^125 I]IBZM was incubated in the presence of the
as §1, §2, §3, §4

[4] = target: T1, dopamine D-2 receptor; assay: Saturation binding of [^125 I]IBF to rat striatal homogenate in vitro; settings: saturation curve, FIG. 1
Experimental: as §3, §4

[5] = Biodistribution in rats after IV injection; type: in vivo, rat; settings: IV, average of 3 rats ± SD
Experimental: Male Sprague Dawley rats (225-300 g), which were allowed free access to food and water, were used for in vivo biodistribution study. While under halothane anesthesia, 0.2 ml of a saline solution containing [^125 l]IBF, 21, (8-10 μCi) was injected directly into the femoral vein, and the rats were sacrificed at various time points postinjection by cardiac excision under halothane anesthesia. The organs of interest were removed, weighed and the radioactivity was counted using a Beckman gamma automatic counter (Model 4000). The percent dose per organ was calculated by a comparison of the tissue counts to suitably diluted aliquots of the injected material. Total activities of blood and muscle were calculated assuming that they are 7% and 40% of total body weight, respectively.

[6] = test system: D-2 dopamine receptor; settings: cited from earlier work; for nonspecific binding: in vitro
[7] = test system: CNS D-2 dopamine receptor; settings: cited from earlier work
[8] = target: D-2 dopamine receptor; settings: read-out: IC50 against [H^3]spiperone binding of rat striatal tissue preparation; Table 1 footnote; cited from earlier work
[9] = test system: D-2 dopamine receptor; settings: cited from earlier work
[10] = [^125 I]IBZM 0.15-0.4 nM, mean ± SEM of three to five determinations
[11] = N-methylspiperone imaging agent, determined earlier

T2 sequence (P61169 whole entry): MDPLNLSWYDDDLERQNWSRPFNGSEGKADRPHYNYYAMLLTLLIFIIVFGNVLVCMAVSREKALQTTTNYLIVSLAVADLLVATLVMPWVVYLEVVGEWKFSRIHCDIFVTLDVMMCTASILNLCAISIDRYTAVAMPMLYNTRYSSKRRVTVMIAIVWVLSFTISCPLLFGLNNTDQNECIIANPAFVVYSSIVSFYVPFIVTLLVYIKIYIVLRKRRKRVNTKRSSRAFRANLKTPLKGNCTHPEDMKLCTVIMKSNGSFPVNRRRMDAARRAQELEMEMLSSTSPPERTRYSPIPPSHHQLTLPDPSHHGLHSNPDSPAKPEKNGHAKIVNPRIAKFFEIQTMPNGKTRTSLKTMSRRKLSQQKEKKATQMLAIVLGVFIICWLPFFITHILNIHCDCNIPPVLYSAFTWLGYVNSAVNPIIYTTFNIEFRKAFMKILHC
T1 sequence (P61169 whole entry): as above

Structure (SMILES): CCN1CCC[C@H]1CNC(=O)c1c(O)c(Cl)cc(Cl)c1OC [Raclopride]
- Kd [1]: 1.1 nM
- affinity for D-2 dopamine receptor [1]: high affinity
- nonspecific binding [1]: low nonspecific binding

Structure (SMILES): CCN1CCC[C@H]1CNC(=O)c1c(O)cccc1OC [BZM]
- Kd [1]: 31.1 nM

Structure (SMILES): NC1CCc2cc(O)c(O)cc2C1 (single isomer, unassigned; (+)) [(+) ADTN,6,7]
- Ki [2]: 65.7 ± 13 nM

Structure (SMILES): COc1cc(N=[N+]=[N-])c(I)cc1C(=O)NC1CCN(Cc2ccccc2)CC1 [Iodoazidoclebopride]
- Kd [1]: 14 nM
- affinity and selectivity to the D-2 dopamine receptor [1]: very high affinity and selectivity

Structure (SMILES): CCN1CCC[C@H]1CNC(=O)c1c(O)c(Cl)cc(Cl)c1O[11CH3] (racemic) [[^11 C]raclopride]
- affinity constant Kd ([7]; living human brain, PET, equilibrium model and Scatchard plots): 7.1 nM
- Bmax ([7]; living human brain, PET): 15 pmol/mL
- ratio of specific striatal to nonspecific cerebellar binding ([7]; living human brain, PET): high ratio

Structure (SMILES): CN1CN(c2ccccc2)C2(CCN(CCCC(=O)c3ccc(F)cc3)CC2)C1=O [N-methylspiperone]
- Bmax [7, 11]: 16.6 pmol/g
- Kd [7, 11]: 0.097 nM

Structure (SMILES): CCc1cc(Cl)c(OC)c(C(=O)NC[C@@H]2CCCN2CC)c1O [Eticlopride]
- Kd [1]: 0.17 nM
- affinity for D-2 dopamine receptor [1]: high affinity
- nonspecific binding [1]: low nonspecific binding

Structure (SMILES): CCN1CCC[C@H]1CNC(=O)c1cc(I)ccc1OC [Iodopride]
- affinity and selectivity to the D-2 dopamine receptor [1]: very high affinity and selectivity
- IC50 [8]: 3 nM

Structure (SMILES): CCN1CCC[C@H]1CNC(=O)c1c(OC)ccc([123I])c1O [S-[^123 I]IBZM]
- basal ganglia uptake, planar imaging ([9]; immediately after intravenous injection, humans): high concentration in basal ganglia of the brain
- basal ganglia uptake, SPECT ([9]; normal human brain, 1 hour postinjection): highly specific uptake in the basal ganglia of the brain

Structure (SMILES): O=C(CCCN1CCC2(CC1)C(=O)NCN2c1ccccc1)c1ccc(F)cc1I [2'-ISP]
- D-2 specificity [6]: excellent D-2 specificity
- nonspecific binding [6]: 40%
- Kd ([6]; rat striatum): 0.25 nM

Continued, in another order:

- Ki [2]: 491 ± 49 nM
Structure (SMILES): O=C(c1ccc(F)cc1)C1CCN(CCn2c(=O)[nH]c3ccccc3c2=O)CC1 [Ketanserin]

- Ki [3, 10]: 0.33 ± 0.02 nM
- Ki ([3]; [^125 I]IBZM binding): 0.23 nM
- times more effective than the bromine atom for increasing competitive binding affinity ([3]; iodo (21) vs bromo (19)): sixteen
- nonspecific binding [4]: low nonspecific binding
- Ki [2]: 0.085 ± 0.01 nM
Structure (SMILES): CCN1CCC[C@H]1CNC(=O)c1cc(I)cc2c1OCC2 [Compound 21, 5-Iodo-7-N-[(1-ethyl-2-pyrrolidinyl)methyl]carboxamido-2,3-dihydrobenzofuran]

- Ki [3, 10]: 168 ± 13 nM
- Ki ([3]; [^125 I]IBZM binding): 168 nM
Structure (SMILES): CCN1CCC[C@H]1CNC(=O)c1cc2cc(I)ccc2cc1OC [Compound 8, (S)-(-)-7-Iodo-3-methoxy-N-[(1-ethyl-2-pyrrolidinyl)methyl]naphthyl-2-carboxamide]

- Brain uptake ([5]; 2 min): 2.87 % Dose/Organ
- Thyroid uptake ([5]; 60 min): 0.1 % Dose/Organ
Structure (SMILES): CCN1CCC[C@H]1CNC(=O)c1c(OC)ccc([125I])c1O [[^125 I]IBZM, reference compound]
- nonspecific binding [6]: 5%

- Ki [3, 10]: 82 ± 12 nM
- Ki ([3]; [^125 I]IBZM binding): 82 nM
Structure (SMILES): CCN1CCC[C@H]1CNC(=O)c1cc2cc(Br)ccc2cc1OC [Compound 6, S-(-)-7-Bromo-3-methoxy-N[(1-ethyl-2-pyrrolidinyl)methyl]naphthyl-2-carboxamide]

- Ki [3, 10]: 507 ± 29 nM
Structure (SMILES): CCN1CCC[C@H]1CNC(=O)c1c(OC)ccc2ccccc12 [Comparative Cpd. B, 2-Methoxy-N-[(1-ethyl-2-pyrrolidinyl)methyl]naphthyl-1-carboxamide, reference compound]

- Ki [2]: 0.261 ± 0.018 nM
Structure (SMILES): CCN1CCC[C@H]1CNC(=O)c1c(OC)ccc(I)c1O [IBZM]
- Kd [1]: 0.43 nM
- affinity and selectivity to the D-2 dopamine receptor [1]: very high affinity and selectivity

- Ki [3, 10]: 280 ± 47 nM
Structure (SMILES): CCN1CCC[C@H]1CNC(=O)c1cc2cc(Br)ccc2cc1O [Comparative Cpd. A, reference compound]

- Ki [3, 10]: 30 ± 4.2 nM
- Ki ([3]; [^125 I]IBZM binding): 30 nM
Structure (SMILES): CCN1CCC[C@H]1CNC(=O)c1cc2ccccc2cc1OC [Compound 11, (S)-(-)-3-Methoxy-N-[(1-ethyl-2-pyrrolidinyl)methyl]naphthyl-2-carboxamide]

- Ki [3, 10]: 135 ± 22 nM
- Ki ([3]; [^125 I]IBZM binding): 135 nM
Structure (SMILES): CCN1CCC[C@H]1CNC(=O)c1cccc2c1OCC2 [Compound 23, 7-N-[(1-ethyl-2-pyrrolidinyl)methyl]carboxamido-2,3-dihydrobenzofuran]
